Columns and labels:
[1] = Biodistribution in rats; assay type: in vivo, male rats; conditions: i.v.
Procedure: Biodistribution in Rats--Methods
The quantitative biodistribution was studied in male rats at 2 minutes, 1 hour and 4 hours post-injection
Rats under light anaesthesia were injected intravenously with 0.1 ml of test agent. Three rats were sacrificed (anaesthesia followed by exsanguination) at 2, 60 and 240 minutes, post-injection. The percentage of the injected dose in the excreta and organs and tissues was determined by dissection and assay for radioactivity in an automatic gamma counter.

[2] = tested on: isolated (Langendorff) rat hearts; test: Isolated perfused heart (Langendorff), hypoxic vs oxic uptake/retention; conditions: for Hypoxic/Oxic Ratio (H/O): ^99m Tc complex (or ^123 I-IAZA), 20 min infusion, 15 min washout; for Normalised Hypoxic Retention: relative to ^3 H-misonidazole activity
Procedure: A 15-minute cold buffer washout period follows. y activity in the heart is monitored using a collimated NaI probe detector positioned over the heart.
Activity in hearts, relative to perfusate activity, is calculated for each nuclide and data evaluated for each compound for activity in hypoxic and oxic hearts (hypoxic:oxic ratio) and also relative to the 3 H-misonidazole activity (normalised retention) using Formula 1. [formula] Results

[3] = 2 min post-injection, ^99m Tc complex
[4] = 240 min post-injection (third printed value)
[5] = second of two values, 60 or 240 min not assignable

Bladder/Urine ([1]; 2 min post-injection) [percent injected dose]	Blood ([1]; 2 min post-injection) [percent injected dose]	Gut ([1]; 2 min post-injection) [percent injected dose]	Kidney ([1]; 2 min post-injection) [percent injected dose]	Liver ([1]; 2 min post-injection) [percent injected dose]	Muscle [1, 3] [percent injected dose]	Gut ([1]; 60 min post-injection) [percent injected dose]	Muscle ([1]; 60 min post-injection) [percent injected dose]	Muscle [1, 4] [percent injected dose]	Gut ([1]; 240 min post-injection) [percent injected dose]	Blood [1, 5] [percent injected dose]	Kidney [1, 5] [percent injected dose]	Liver [1, 5] [percent injected dose]	SMILES	Hypoxic/Oxic Ratio (H/O) [2]	Normalised Hypoxic Retention [2]	hypoxia selectivity / hypoxic/oxic ratio / hypoxic retention (in words) [2]
0.8	10.1	13.8	7.7	12.9	32.1	31.6	8.3	3.0	37.7	2.0	2.2	11.2	CCC(=NO)C(C)(C)NCCCCNC(C)(C)C(C)=NO [Compound IX, 4,9-diaza-3,3,10,10-tetramethyltridecan-2,11-dione dioxime]	8.4	2.1	–
0.6	13.5	8.6	12.5	12.2	24.8	16.3	13.4	10.0	21.2	5.3	10.4	13.7	CC(C)(C=NO)NCCCCNC(C)(C)C=NO [Compound VI, 3,8-diaza-2,2,9,9-tetramethyldecan-1,10-dial dioxime]	3.2	0.67	–
1.2	12.8	9.5	14.2	10.2	27.4	21.3	5.7	1.9	32.1	1.7	6.2	6.3	COCC(=NO)C(C)(COC)NCCCCNC(C)(COC)C(COC)=NO (stereo not drawn) [Compound XV, 3,10-Bis(methoxymethyl)-4,9-diaza-1,12-dimethoxy-3,10-dimethyldodecan-2,11-dione dioxime]	1.2	1.4	–
0.6	9.0	13.9	7.8	13.6	29.7	36.2	7.4	2.4	46.7	1.8	2.5	13.1	CCC(=NO)C(C)(C)NCCCCNC(C)(C)C(CC)=NO [Compound VIII, 5,10-diaza-4,4,11,11-tetramethyltetradecan-3,12-dione dioxime]	34	2.2	–
0.8	11.8	12.1	9.8	12.9	25.6	23.2	9.2	7.5	31.3	3.0	3.4	11.6	CCC(=NO)C(C)(C)NCCCCNC(C)(C)C=NO [Compound VII, 3,8-diaza-10-(hydroxyimino)-2,2,9,9-tetramethyl dodecanal oxime]	8.8	1.5	–
1.1	9.8	11.4	8.8	18.4	25.7	23.0	10.1	7.1	25.6	5.0	8.8	20.4	CC(=NO)C(C)NCCCCNC(C)C(C)=NO (stereo not drawn) [Compound XIII, 4,9-Diaza-3,10-dimethyldodecan-2,11-dione dioxime]	–	–	–

More lines, now with the values behind:

SMILES	Bladder/Urine ([1]; 2 min post-injection) [percent injected dose]	Blood ([1]; 2 min post-injection) [percent injected dose]	Gut ([1]; 2 min post-injection) [percent injected dose]	Kidney ([1]; 2 min post-injection) [percent injected dose]	Liver ([1]; 2 min post-injection) [percent injected dose]	Muscle [1, 3] [percent injected dose]	Gut ([1]; 60 min post-injection) [percent injected dose]	Muscle ([1]; 60 min post-injection) [percent injected dose]	Muscle [1, 4] [percent injected dose]	Gut ([1]; 240 min post-injection) [percent injected dose]	Blood [1, 5] [percent injected dose]	Kidney [1, 5] [percent injected dose]	Liver [1, 5] [percent injected dose]	Hypoxic/Oxic Ratio (H/O) [2]	Normalised Hypoxic Retention [2]	hypoxia selectivity / hypoxic/oxic ratio / hypoxic retention (in words) [2]
CC(C)(C=NO)NCCCCNC(C)(C)C(Cn1ccnc1[N+](=O)[O-])=NO [Compound XII, 3,8-diaza-10-hydroxyimino-11-(2-nitro-1-imidazolyl)-2,2,9,9-tetramethylundecanal oxime]	1.2	10.8	13.4	13.3	16.0	23.9	31.9	8.2	5.2	35.5	2.0	5.5	11.0	9.5	1.9	little or no effect on both the hypoxic/oxic ratio and normalised hypoxic retention
O=[N+]([O-])c1nccn1[C@H]1O[C@H](C[123I])[C@@H](O)[C@@H]1O [^123 I-IAZA, ^123 I-iodoazomycin arabinoside, reference compound]	–	–	–	–	–	–	–	–	–	–	–	–	–	10	2.7	–
CC(=NO)C(C)(C)NCCCCCNC(C)(C)C(C)=NO [Compound III, 4,10-diaza-3,3,11,11-tetramethyltridecan-2,12-dione dioxime]	0.2	18.1	8.2	11.3	9.7	26.9	25.0	10.1	3.3	35.6	1.1	4.2	5.4	–	–	–
COC(=O)C(CCCNC(C)(C)C(C)=NO)NC(C)(C)C(C)=NO (stereo not drawn) [Compound XVI, 4,9-diaza-3,3,10,10-tetramethyldodecan-2,11-dione dioxime-8-carboxylic acid methyl ester]	0.3	17.8	6.3	13.8	4.4	24.4	6.5	3.7	2.3	12.4	3.1	7.6	2.5	4.0	0.22	–
CC(C)(NCCCCNC(C)(C)C(Cn1ccnc1[N+](=O)[O-])=NO)C(Cn1ccnc1[N+](=O)[O-])=NO [Compound XI, 1,12-bis(2-Nitro-1-imidazolyl)-4,9-diaza-3,3,10,10-tetramethyldodecan-2,11-dione dioxime]	0.2	10.8	18.2	8.6	21.7	18.7	56.7	5.6	3.1	66.0	1.4	2.1	7.3	3.4	0.98	further reduces the hypoxia selectivity

— US5997843A, “Radiometal complexes that localise in hypoxic tissue” (priority 1993, dated 1999)
